Assay results reported in patent US20120022143A1, “RNA Interference Mediated Inhibition of the Thymic Stromal Lymphopoietin (TSLP) Gene Expression Using Short Interfering Nucliec Acid (siNA)” (Merck Sharp & Dohme Corp, priority 2009, published 2012).
[invAb] = inverted abasic unit; d = 2'-deoxy (DNA); m = 2'-O-methyl; r = 2'-OH (RNA); f = 2'-fluoro

Columns and labels:
mTSLP mRNA = test: Initial screening: mouse TSLP mRNA knock-down by RT-PCR (Taqman) after RNAiMax transfection of NIH 3T3 cells; assay type: cell-based; details: 10 nM siNA, 24 hrs post-transfection, mean ± s.d., summary from 2 screens
Procedure: (§1) All cells were obtained from ATCC (Manassas, Va.) unless otherwise indicated. Cells were grown and transfected under standard conditions, which are detailed below for each cell line.
NIH 3T3 (murine; ATCC cat#CRL-1658): Cells were cultured at 37° C. in the presence of 5% CO2 and grown in Dulbecco's modified Eagle's medium (DMEM) with 4 mM L-glutamine adjusted to contain 1.5 g/L sodium bicarbonate and 4.5 g/L glucose and supplemented with fetal bovine serum at a final concentration of 10% and 100 μg/mL of streptomycin and 100 U/mL penicillin.
(§2) All transfections were performed using RNAiMax (Invitrogen Cat# 13778-150) as per the manufacturer's instructions.
(§3) Both human and murine cell lines were transfected in the similar fashion. Cells were plated in all wells of a tissue-culture treated, 96-well plate at a final count of 5,000 cells/well in […], of appropriate culture media. Cells were cultured for 24 hours after plating at 37° C. in the presence of 5% CO2.
(§4) After 24 hours, complexes containing siNA and RNAiMax were created as follows: A solution of RNAiMax diluted 33-fold in OPTI-MEM was prepared. In parallel, solutions of the siNAs for testing were prepared to a final concentration of 120 nM in OPTI-MEM. After incubation of RNAiMax/OPTI-MEM solution at room temperature for 5 min, an equal volume of the siNA solution and the RNAiMax solution were added together for each of the siNAs.
(§5) This solution was incubated at room temperature for 20 minutes. After incubation, 20 uL of the solution was added to each of the relevant wells.
(§6) The final concentration of siNA in each well was 10 nM and the final volume of RNAiMax in each well was 0.3 ul.
(§7) The time of incubation with the RNAiMax-siNA complexes was 24 hours, unless otherwise indicated. There was no change in media between the transfection and harvesting of the cells unless otherwise indicated.
(§8) RNA was extracted from a 96-well plate using the TaqMan® Gene Expression Cells-to-CT™ Kit (Cat# 4399002) with a modified protocol. Briefly, a 60 uL (1 plate) or 110 uL (2 plates) of the Lysis Solution with DNase I was dispensed into each well of the Lysis Buffer Plate (twin.tec full skirt plate). The lysis buffer and stop plates were stored at 4° C. until the cells were washed.
(§9) The plate was spun at 1100 rpm for 5 minutes. The culture medium was aspirated and discarded from the wells of the culture plate. The lysis was performed automatically using a BioMek FX instrument and method. After the Biomek method was completed, the lysis plate was incubated for 2 min. at room temperature. The lysis plate can be stored for 2 hours at 4° C., or at −20° C. or −80° C. for two months.
(§10) Each well of the reverse transcription plate required 10 uL of 2× reverse transcriptase Buffer, luL of 20× reverse transcription enzyme and 2 uL of nuclease-free water. The reverse transcription master mix was prepared by mixing 2× reverse transcription buffer, 20× reverse transcription enzyme mix, and nuclease-free water. 13 uL of the reverse transcription master mix was dispensed into each well of the reverse transcription plate (semi-skirted). A separate reverse transcription plate was prepared for each cell plate. The plate was loaded onto a Biomek NX or Biomek FX Dual-96 and the Biomek method was run. The program is programmed to automatically added 7 uL of lysate from the cell lysis procedure described above into each well of the reverse transcription plate. The plate is sealed and spun on a centrifuge (1000 rpm for 30 seconds) to settle the contents to the bottom of the reverse transcription plate. The plate is placed in a thermocycler at 37° C. for 60 min, 95° C. for 5 min, and 4° C. until the plate is removed from the thermocycler. Upon removal, if not used immediately, the plate was frozen at −20° C.
A series of probes and primers were used to detect the various mRNA transcripts of the genes of TSLP, IL-8 and GAPDH in human cell lines. […]

TSLP mRNA = test: Initial screening: TSLP mRNA knock-down by RT-PCR (Taqman) after RNAiMax transfection of NHLF cells; assay type: cell-based; details: 10 nM siNA, human NHLF cells, 24 hrs post-transfection, relative to non-targeting control, normalized to GAPDH; mean ± s.d. from 2 experiments
Procedure: as §1
NHLF (human; Lonza cat# CC-2512): Cells were cultured at 37° C. in the presence of 5% CO2 and grown Fibroblast Basal Medium (Lonza cat# CC-3β2) supplemented growth factors (provided with the kit) and 100 μg/mL of streptomycin and 100 U/mL penicillin.
as §2, §3, §4, §5, §6, §7, §8, §9, §10
A series of probes and primers were used to detect the various mRNA transcripts of the genes of TSLP, IL-8 and GAPDH in human cell lines. All the Taqman probes and primers for the experiments here-in described were supplied as pre-validated sets by Applied Biosystems, Inc. (see Table 2). […]

“25460-DC: siNA duplex: sense B GucuGAAucAAAccucACA TTB (SEQ ID NO: 103), antisense UGUGAGGuuuGAuucAGAcUU (SEQ ID NO: 104) (sense GUCUGAAUCAAACCUCACATT; antisense UGUGAGGUUUGAUUCAGACUU; sense: sugars from the 5' end dfffdddffdddffffddddd, [invAb] at 5' end, 3' end, backbone not given here; antisense: sugars from the 5' end rrrmmmmfffmmfffmmmfmm, backbone not given here)” was tested, and the “% KD mTSLP NIH3T3” value (mTSLP mRNA) was 40.8 ± 1.4% and the “% KD TSLP” value (TSLP mRNA) was −7 ± 10.7%.
With “25451-DC: siNA duplex: sense B uAAuuAcAGAAGAGuuucu TTB (SEQ ID NO: 85), antisense AGAAAcucuucuGuAAuuAUU (SEQ ID NO: 86) (sense UAAUUACAGAAGAGUUUCUTT; antisense AGAAACUCUUCUGUAAUUAUU; sense: DNA at AGT, 2'-fluoro at CU, [invAb] at 5' end, 3' end, backbone not given here; antisense: sugars from the 5' end rrrmmfffffffmfmmffmmm, backbone not given here)” the “% KD mTSLP NIH3T3” value (mTSLP mRNA) was −37.4 ± 15.7% and the “% KD TSLP” value (TSLP mRNA) was 76 ± 16.4%.
With “25464-DC: siNA duplex: sense B ccAGAAuAAAAuuAGcuuu TTB (SEQ ID NO: 111), antisense AAAGcuAAuuuuAuucuGGUU (SEQ ID NO: 112) (sense CCAGAAUAAAAUUAGCUUUTT; antisense AAAGCUAAUUUUAUUCUGGUU; sense: DNA at AGT, 2'-fluoro at CU, [invAb] at 5' end, 3' end, backbone not given here; antisense: sugars from the 5' end rrrmffmmffffmffffmmmm, backbone not given here)” the “% KD mTSLP NIH3T3” value (mTSLP mRNA) was 89.2 ± 1.1% and the “% KD TSLP” value (TSLP mRNA) was 3 ± 39%.
In the case of “25461-DC: siNA duplex: sense B GGGcuAAcuuAcAAcuuuu TTB (SEQ ID NO: 105), antisense AAAAGuuGuAAGuuAGcccUU (SEQ ID NO: 106) (sense GGGCUAACUUACAACUUUUTT; antisense AAAAGUUGUAAGUUAGCCCUU; sense: DNA at AGT, 2'-fluoro at CU, [invAb] at 5' end, 3' end, backbone not given here; antisense: sugars from the 5' end rrrmmffmfmmmffmmfffmm, backbone not given here)”, the “% KD mTSLP NIH3T3” value (mTSLP mRNA) is reported as −17.2 ± 3.6% and the “% KD TSLP” value (TSLP mRNA) is reported as −48 ± 56.1%.
“25448-DC: siNA duplex: sense B uGuGAAcAcuuuuGAAAAu TTB (SEQ ID NO: 79), antisense AUUuucAAAAGuGuucAcAUU (SEQ ID NO: 80) (sense UGUGAACACUUUUGAAAAUTT; antisense AUUUUCAAAAGUGUUCACAUU; sense: DNA at AGT, 2'-fluoro at CU, [invAb] at 5' end, 3' end, backbone not given here; antisense: sugars from the 5' end rrrfffmmmmmfmfffmfmmm, backbone not given here)” was tested, and the “% KD mTSLP NIH3T3” value (mTSLP mRNA) was 45.1 ± 6.3% and the “% KD TSLP” value (TSLP mRNA) was 80 ± 7%.
With “25457-DC: siNA duplex: sense B cucAGGAAAuGGcAcAAGA TTB (SEQ ID NO: 97), antisense UCUuGuGccAuuuccuGAGUU (SEQ ID NO: 98) (sense CUCAGGAAAUGGCACAAGATT; antisense UCUUGUGCCAUUUCCUGAGUU; sense: DNA at AGT, 2'-fluoro at CU, [invAb] at 5' end, 3' end, backbone not given here; antisense: sugars from the 5' end rrrfmfmffmffffffmmmmm, backbone not given here)” the “% KD mTSLP NIH3T3” value (mTSLP mRNA) was 81.5 ± 3.7% and the “% KD TSLP” value (TSLP mRNA) was 32 ± 2%.
“25462-DC: siNA duplex: sense B GGGcuAAGuucGAGcAAAu TTB (SEQ ID NO: 107), antisense AUUuGcucGAAcuuAGcccUU (SEQ ID NO: 108) (sense GGGCUAAGUUCGAGCAAAUTT; antisense AUUUGCUCGAACUUAGCCCUU; sense: DNA at AGT, 2'-fluoro at CU, [invAb] at 5' end, 3' end, backbone not given here; antisense: sugars from the 5' end rrrfmfffmmmfffmmfffmm, backbone not given here)” was tested, and the “% KD mTSLP NIH3T3” value (mTSLP mRNA) was −9.5 ± 28.7% and the “% KD TSLP” value (TSLP mRNA) was 23 ± 16.4%.
With “25444-DC: siNA duplex: sense B GuGucAcAAuuAcAAGGAu TTB (SEQ ID NO: 71), antisense AUCcuuGuAAuuGuGAcAcUU (SEQ ID NO: 72) (sense GUGUCACAAUUACAAGGAUTT; antisense AUCCUUGUAAUUGUGACACUU; sense: DNA at AGT, 2'-fluoro at CU, [invAb] at 5' end, 3' end, backbone not given here; antisense: sugars from the 5' end rrrfffmfmmffmfmmfmfmm, backbone not given here)” the “% KD mTSLP NIH3T3” value (mTSLP mRNA) was 19.5 ± 19% and the “% KD TSLP” value (TSLP mRNA) was 80 ± 5.3%.
“25466-DC: siNA duplex: sense B cAGAAGGGAuucuuAAcuu TTB (SEQ ID NO: 115), antisense AAGuuAAGAAucccuucuGUU (SEQ ID NO: 116) (sense CAGAAGGGAUUCUUAACUUTT; antisense AAGUUAAGAAUCCCUUCUGUU; sense: DNA at AGT, 2'-fluoro at CU, [invAb] at 5' end, 3' end, backbone not given here; antisense: sugars from the 5' end r3 f2 m5 f8 m3, backbone not given here)” was tested, and the “% KD mTSLP NIH3T3” value (mTSLP mRNA) was −17.8 ± 28.5% and the “% KD TSLP” value (TSLP mRNA) was 38 ± 25^ %.
In the case of “25468-DC: siNA duplex: sense B uGcuGAAuAAAGuAAuucu TTB (SEQ ID NO: 119), antisense AGAAuuAcuuuAuucAGcAUU (SEQ ID NO: 120) (sense UGCUGAAUAAAGUAAUUCUTT; antisense AGAAUUACUUUAUUCAGCAUU; sense: DNA at AGT, 2'-fluoro at CU, [invAb] at 5' end, 3' end, backbone not given here; antisense: sugars from the 5' end rrrmffmffffmfffmmfmmm, backbone not given here)”, the “% KD mTSLP NIH3T3” value (mTSLP mRNA) is reported as 32.2 ± 15.2% and the “% KD TSLP” value (TSLP mRNA) is reported as 30 ± 12.9%.
“25435-DC: siNA duplex: sense B cccAAGcucuuAAAuGcuA TTB (SEQ ID NO: 53), antisense UAGcAuuuAAGAGcuuGGGUU (SEQ ID NO: 54) (sense CCCAAGCUCUUAAAUGCUATT; antisense UAGCAUUUAAGAGCUUGGGUU; sense: DNA at AGT, 2'-fluoro at CU, [invAb] at 5' end, 3' end, backbone not given here; antisense: sugars from the 5' end rrrfmfffmmmmmfffmmmmm, backbone not given here)” was tested, and the “% KD mTSLP NIH3T3” value (mTSLP mRNA) was −60.6 ± 5.4% and the “% KD TSLP” value (TSLP mRNA) was −8 ± 25.4%.
